The term inhibition denotes the relative decrease from the control value, in per cent. As usually defined, the IC50 is the midpoint of a concentration-inhibition curve. The Ki is the equilibrium dissociation constant of an inhibitor or competing ligand from its target.

The values below come from patent US20090062255A1, “TUMOR-TARGETING EVALUATION METHODOLOGY AND COMPOUNDS RELATED THERETO” (THALLION PHARMACEUTICALS INC., priority 2007, published 2009).

The structures appear in SMILES notation. “And” between values parts separate entries of the source, which are not always exact repeats. Equal values may be shown once.

Assay [1] deals with Acyl CoA-Cholesterol Acyltransferase (ACAT). Nature of the assay: ACAT enzyme assay. The note with it: 10 μM compound, 1% DMSO. The format is biochemical, rat. An excerpt:
Acyl CoA-Cholesterol Acyltransferase (ACAT) converts cholesterol to cholesteryl esters and is involved in the development of artherioscerosis.
(§1) The procedures used were based on known assays: ACAT (from rat; Ref: Largis et al (1989), J. Lipid. Res., vol 30, 681-689), COX-2 (human; Ref: Riendeau et al (1997), Can. J. Physiol. Pharmacol., vol 75, 1088-1095 and Warner et al (1999), Pro. Natl. Acad. Sci. USA, vol 96, 7563-7568), 5-LO (human; Ref: Carter et al (1991), J. Pharmacol. Exp. Ther., vol 256, no 3, 929-937, and Safayhi et al (2000), Planta Medica, vol 66, 110-113), PBR (from rat; Le Fur et al (1983), Life Sci. USA, vol 33, 449-457), CysLT1 (human; Martin et al (2001), Biochem. Pharmacol., vol 62, no 9, 1193-1200) and CBR (from rat; Damm et al (1978), Res. Comm. Chem. Pathol. Pharmacol., vol 22, 597-600 and Speth et al (1979), Life Sci., vol 24, 351-357).
(§2) Binding assays were done for each of Compounds 1-12 and 46 using ACAT, COX-2, 5-LO, PBR and CysLT1 enzymes. The procedures used are based on the respective references mentioned above and the conditions are summarized in Tables 16 (enzyme assays) and 17 (radioligand receptor assays).
(§3) Binding Assays were done at constant concentration of the compound, in 1% DMSO as vehicle, and are specified below each enzyme/receptor type in Table 18. The results are expressed in Table 18 as percentage inhibition. Significance was obtained when a result was ≧50% binding or inhibition (underlined).

Assay [2] deals with T1, Leukotriene, Cysteinyl (CysLT1) receptor (Homo sapiens, UniProt Q9Y271).
T1 construct: expressed in transfected cells; host or cells: CHO-K1 cells
T1 sequence (Q9Y271 1-337): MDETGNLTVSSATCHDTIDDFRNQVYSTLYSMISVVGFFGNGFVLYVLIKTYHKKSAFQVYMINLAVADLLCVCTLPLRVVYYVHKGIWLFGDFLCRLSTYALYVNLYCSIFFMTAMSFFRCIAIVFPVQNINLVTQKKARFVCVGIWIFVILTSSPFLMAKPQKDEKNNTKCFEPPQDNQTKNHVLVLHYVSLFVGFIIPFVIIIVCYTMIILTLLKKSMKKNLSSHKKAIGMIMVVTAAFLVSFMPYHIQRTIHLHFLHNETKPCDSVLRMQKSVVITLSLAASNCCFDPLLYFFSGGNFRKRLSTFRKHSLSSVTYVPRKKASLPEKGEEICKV
Description: CysLT1 radioligand binding assay. The note with it: 4 μM compound, 1% DMSO; read-out: Percentage of inhibition or binding activity, CysLT1 (4 μM).
Description: Leukotriene, Cysteinyl (CysLT1) is involved in inflammation and CysLT1-selective antagonists are used as treatment for bronchial asthma.
as §1, §2, §3

Assay [3] deals with T2, peripheral benzodiazepine receptor (PBR) (Rattus norvegicus, UniProt P16257).
T2 construct: CBR and PBR were obtained from rat brain and heart membrane-fractions, respectively; from tissue; host or cells: Wistar rat heart membranes
Nature of the assay: PBR radioligand binding assay ([3H]PK-11195, rat heart). The conditions noted are these: for inhibition at 1 µM: 1 μM compound, 1% DMSO, read-out: Percentage of inhibition or binding activity, PBR (1 μM).
Description: as §1, §2, §3
As Compound 1 was isolated from structural prediction through genetic analysis and activity identified through in vitro cytotoxic assays, its molecular target(s) were unknown at the time of discovery. Based on the structural characteristics of ECO-4601, we first investigated its binding affinity to the central (GABAA; CBR;) and peripheral (PBR) benzodiazepine receptors. The effect of ECO-4601 on CBR (GABAA) and PBR was initially evaluated in a radioligand-binding assay at MDS Pharma Services (Taipei, Tawain). CBR and PBR were obtained from rat brain and heart membrane-fractions, respectively. Displacement assays were done in the presence of 1 nM [^3H]-Flunitrazepam (CBR; GABAA) or 0.3 nM of [^3H]-PK11195 (PBR). ECO-4601 was tested at 0.01, 0.1, 0.5, 1, 5 and 10 μM. Non-specific binding was estimated in the presence of 10 μM diazepam (CBR) or 100 μM dipyrimadole (PBR) and assays were performed according to previous described methods (Damm et al Res Commun Chem Pathol Pharmacol 22, pp 597-600; Le Fur et al (1983) Life Science 33, pp 449-57). […] This contrats with current specific PBR ligands, which bind the PBR with nanomolar affinity yet their effect on cell proliferation, is in the micromolar range.

Take `CC(C)=CCC/C(C)=C/CC/C(C)=C/CN1C(=O)c2cccc(O)c2Nc2c(O)cc(O)cc21` [Compound 1, 10-farnesyl-4,6,8-trihydroxy-5,10-dihydrodibenzo[b,e][1,4]diazepin-11-one]: the “Percentage of inhibition or binding activity, ACAT (10 μM)” value in assay [1] is recorded as 90%. For the same molecule, in assay [2], the inhibition at 4 µM worked out at 92%. Besides, in assay [3], the inhibition at 1 µM amounted to 80%. The IC50 in assay [3] (multiple dilutions, 0.3 nM [3H]-PK11195, rat heart, read-out: PBR IC50 (binding affinity)) was 291 nM and ~300 nM. For the same molecule, the inhibitory constant (Ki) in assay [3] (multiple dilutions, read-out: PBR inhibition constant (Ki)) came out at 257 nM.

For `CC(C)=CCC/C(C)=C/CC/C(C)=C/CN1C(=O)c2cccc(O)c2N(C)c2c(O)cc(O)cc21` [Compound 2, 10-farnesyl-4,6,8-trihydroxy-5-methyl-5,10-dihydro-dibenzo[b,e][1,4]diazepin-11-one], the “Percentage of inhibition or binding activity, ACAT (10 μM)” value in assay [1] came out at 51%. Besides, the inhibition at 4 µM in assay [2] is 75%. In addition, in assay [3], the inhibition at 1 µM is 65%.

`CC(C)=CCC/C(C)=C/CC/C(C)=C/CN1C(=O)c2cccc(O)c2N(Cc2ccccc2)c2c(O)cc(O)cc21` [Compound 3, 5-benzyl-10-farnesyl-4,6,8-trihydroxy-5,10-dihydro-dibenzo[b,e][1,4]diazepin-11-one]: the “Percentage of inhibition or binding activity, ACAT (10 μM)” value in assay [1] is reported as 63%. Besides, in assay [2], the inhibition at 4 µM worked out at 59%. In assay [3], the inhibition at 1 µM was found to be 11%.

With `COc1cccc2c1Nc1c(O)cc(O)cc1N(C/C=C(\C)CC/C=C(\C)CCC=C(C)C)C2=O` [Compound 4, 10-farnesyl-6,8-dihydroxy-4-methoxy-5,10-dihydro-dibenzo[b,e][1,4]diazepin-11-one], the “Percentage of inhibition or binding activity, ACAT (10 μM)” value in assay [1] is 65%. In addition, the inhibition at 4 µM in assay [2] was 64%. Moreover, the inhibition at 1 µM in assay [3] came out at 92%.

On to `COc1cc(O)cc2c1Nc1c(O)cccc1C(=O)N2C/C=C(\C)CC/C=C(\C)CCC=C(C)C` [Compound 5, 10-farnesyl-4,8-dihydroxy-6-methoxy-5,10-dihydro-dibenzo[b,e][1,4]diazepin-11-one], for which the “Percentage of inhibition or binding activity, ACAT (10 μM)” value in assay [1] is on record as 60%. The inhibition at 4 µM in assay [2] worked out at 72%. The inhibition at 1 µM in assay [3] was 68%.

`COc1cc(OC)c2c(c1)N(C/C=C(\C)CC/C=C(\C)CCC=C(C)C)C(=O)c1cccc(O)c1N2` [Compound 6, 10-farnesyl-4-hydroxy-6,8-dimethoxy-5,10-dihydro-dibenzo[b,e][1,4]diazepin-11-one]: in assay [1], the “Percentage of inhibition or binding activity, ACAT (10 μM)” value turned out to be 54%. Further, the inhibition at 4 µM in assay [2] amounted to 24%. Also, the inhibition at 1 µM in assay [3] amounted to 75%.

For the molecule `COc1cccc2c1Nc1c(OC)cc(O)cc1N(CC=C(C)CCC=C(C)CCC=C(C)C)C2=O` [Compound 7, 10-farnesyl-8-hydroxy-4,6-dimethoxy-5,10-dihydro-dibenzo[b,e][1,4]diazepin-11-one], in assay [1], the “Percentage of inhibition or binding activity, ACAT (10 μM)” value worked out at 95%. Moreover, in assay [2], the inhibition at 4 µM is 15%. The inhibition at 1 µM in assay [3] worked out at 65%.

For the molecule `COc1cc(OC)c2c(c1)N(CC=C(C)CCC=C(C)CCC=C(C)C)C(=O)c1cccc(OC)c1N2` [Compound 8, 10-farnesyl-4,6,8-trimethoxy-5,10-dihydro-dibenzo[b,e][1,4]diazepin-11-one], the “Percentage of inhibition or binding activity, ACAT (10 μM)” value in assay [1] was found to be 40%. The inhibition at 4 µM in assay [2] is 13%. For the same molecule, the inhibition at 1 µM in assay [3] was found to be 55%.

Take `CC(=O)Oc1cc(OC(C)=O)c2c(c1)N(CC=C(C)CCC=C(C)CCC=C(C)C)C(=O)c1cccc(O)c1N2` [Compound 9, 6,8-diacetoxy-10-farnesyl-4-hydroxy-5,10-dihydro-dibenzo[b,e][1,4]diazepin-11-one]: in assay [1], the “Percentage of inhibition or binding activity, ACAT (10 μM)” value is 77%. Moreover, in assay [2], the inhibition at 4 µM was 70%. In assay [3], the inhibition at 1 µM is 32%.

As to `CC(=O)Oc1cccc2c1Nc1c(OC(C)=O)cc(O)cc1N(CC=C(C)CCC=C(C)CCC=C(C)C)C2=O` [Compound 10, 4,6-diacetoxy-10-farnesyl-8-hydroxy-5,10-dihydro-dibenzo[b,e][1,4]diazepin-11-one], the “Percentage of inhibition or binding activity, ACAT (10 μM)” value in assay [1] is on record as 90%. The inhibition at 4 µM in assay [2] worked out at 67%. For the same molecule, in assay [3], the inhibition at 1 µM is 86%.

As for `CC(=O)Oc1cc(O)c2c(c1)N(CC=C(C)CCC=C(C)CCC=C(C)C)C(=O)c1cccc(OC(C)=O)c1N2` [Compound 11, 4,8-diacetoxy-10-farnesyl-6-hydroxy-5,10-dihydro-dibenzo[b,e][1,4]diazepin-11-one], the “Percentage of inhibition or binding activity, ACAT (10 μM)” value in assay [1] came to 71%. Further, the inhibition at 4 µM in assay [2] worked out at 74%. In assay [3], the inhibition at 1 µM came to 39%.

Turning to `CC(=O)Oc1cc(OC(C)=O)c2c(c1)N(CC=C(C)CCC=C(C)CCC=C(C)C)C(=O)c1cccc(OC(C)=O)c1N2` [Compound 12, 4,6,8-triacetoxy-10-farnesyl-5,10-dihydro-dibenzo[b,e][1,4]diazepin-11-one], the “Percentage of inhibition or binding activity, ACAT (10 μM)” value in assay [1] was 83%. Besides, the inhibition at 4 µM in assay [2] came out at 33%. In addition, the inhibition at 1 µM in assay [3] worked out at 39%.

As for `CC(C)CCCC(C)CCCC(C)CCN1C(=O)c2cccc(O)c2Nc2c(O)cc(O)cc21` (centres unmarked) [Compound 46, 10-(3,7,11-trimethyldodecyl)-4,6,8-trihydroxy-5,10-dihydro-dibenzo[b,e][1,4]diazepin-11-one], in assay [1], the “Percentage of inhibition or binding activity, ACAT (10 μM)” value was 8%. For the same molecule, the inhibition at 4 µM in assay [2] is 71%. Besides, the inhibition at 1 µM in assay [3] was -1%.
